Patent US12545639B2, “3-substituted phenylamidine compounds, preparation and use thereof” (PI INDUSTRIES LTD., priority 2019, dated 2026)

Key:
Format in all cases: cell-based
Pyricularia oryzae = test: microbe, parasite or virus in culture; settings: 168 h, read-out: control compared to the untreated check (radial growth)
Alternaria solani = Alternaria solani (early blight of tomato/potato) in vitro test, radial growth on potato dextrose agar; settings: 168 h, 300 ppm in potato dextrose agar, 25° C., 60% relative humidity, seven days, read-out: control compared to the untreated check (radial growth)
Rhizoctonia solani = Rhizoctonia solani (rice sheath blight/potato black scurf) in vitro test, radial growth on potato dextrose agar; settings: 168 h, 300 ppm in potato dextrose agar, 25° C., 60% relative humidity, seven days, read-out: control compared to the untreated check (radial growth)

## CCN(C)C=Nc1cc(C)cc(N(C)c2ncccc2C)c1Cl [Compound 108, N′-(2-chloro-5-methyl-3-(methyl(3-methylpyridin-2-yl)amino)phenyl)-N-ethyl-N-methylformimidamide]
Pyricularia oryzae
  inhibition of growth at 300 ppm: ≥ 70%
Alternaria solani
  inhibition of growth at 300 ppm: ≥ 70%

## CCN(C)C=Nc1cc(Cl)cc(Cc2cccnc2)c1C [Compound 248, N′-(5-chloro-2-methyl-3-(pyridin-3-ylmethyl)phenyl)-N-ethyl-N-methylformimidamide]
Pyricularia oryzae
  inhibition of growth at 300 ppm: ≥ 70%

## CCN(C)C=Nc1cc(C)cc(N(C)c2ccc(F)cc2F)c1Cl [Compound 82, N′-(2-chloro-3-((2,4-difluorophenyl)(methyl)amino)-5-methylphenyl)-N-ethyl-N-methylformimidamide]
Rhizoctonia solani
  inhibition of growth at 300 ppm: ≥ 70%
Pyricularia oryzae
  inhibition of growth at 300 ppm: ≥ 70%
Alternaria solani
  inhibition of growth at 300 ppm: ≥ 70%

## CCN(C)C=Nc1cc(OC)cc(Cc2cccc(C#N)c2)c1C [Compound 306, N′-(3-(3-cyanobenzyl)-5-methoxy-2-methylphenyl)-N-ethyl-N-methylformimidamide]
Rhizoctonia solani
  inhibition of growth at 300 ppm: ≥ 70%
Pyricularia oryzae
  inhibition of growth at 300 ppm: ≥ 70%
Alternaria solani
  inhibition of growth at 300 ppm: ≥ 70%

## CCN(C)C=Nc1cc(C)cc(Nc2ncccc2C(F)(F)F)c1Cl [Compound 135, N′-(2-chloro-5-methyl-3-((3-(trifluoromethyl)pyridin-2-yl)amino)phenyl)-N-ethyl-N-methylformimidamide]
Rhizoctonia solani
  inhibition of growth at 300 ppm: ≥ 70%
Pyricularia oryzae
  inhibition of growth at 300 ppm: ≥ 70%

## CCN(C)C=Nc1cc(C)cc(Nc2ccccc2OC(F)F)c1Cl [Compound 177, N′-(2-chloro-3-((2-(difluoromethoxy)phenyl)amino)-5-methylphenyl)-N-ethyl-N-methylformimidamide]
Rhizoctonia solani
  inhibition of growth at 300 ppm: ≥ 70%
Pyricularia oryzae
  inhibition of growth at 300 ppm: ≥ 70%
Alternaria solani
  inhibition of growth at 300 ppm: ≥ 70%

## CCN(C)C=Nc1cc(C)cc(N(C)c2ccc3ncsc3c2)c1Cl [Compound 240, N′-(3-(benzo[d]thiazol-6-yl(methyl)amino)-2-chloro-5-methylphenyl)-N-ethyl-N-methylformimidamide]
Pyricularia oryzae
  inhibition of growth at 300 ppm: ≥ 70%
Alternaria solani
  inhibition of growth at 300 ppm: ≥ 70%

## CCN(C)C=Nc1cc(Cl)cc(Cc2ccc(C(F)(F)F)cc2)c1C [Compound 249, N′-(5-chloro-2-methyl-3-(4-(trifluoromethyl)benzyl)phenyl)-N-ethyl-N-methylformimidamide]
Pyricularia oryzae
  inhibition of growth at 300 ppm: ≥ 70%

## CCc1cccc(Nc2cc(F)cc(N=CN(C)CC)c2C)n1 [Compound 227, N-ethyl-N′-(3-((6-ethylpyridin-2-yl)amino)-5-fluoro-2-methylphenyl)-N-methylformimidamide]
Alternaria solani
  inhibition of growth at 300 ppm: ≥ 70%

## CCN(C)C=Nc1cc(F)cc(Cc2cccnc2)c1C [Compound 260, N-ethyl-N′-(5-fluoro-2-methyl-3-(pyridin-3-ylmethyl)phenyl)-N-methylformimidamide]
Rhizoctonia solani
  inhibition of growth at 300 ppm: ≥ 70%
Alternaria solani
  inhibition of growth at 300 ppm: ≥ 70%

## CCN(C)C=Nc1cc(Cl)cc(N(C)c2ccc(OC)cc2)c1C [Compound 167, N′-(5-chloro-3-((4-methoxyphenyl)(methyl)amino)-2-methylphenyl)-N-ethyl-N-methylformimidamide]
Rhizoctonia solani
  inhibition of growth at 300 ppm: ≥ 70%
Pyricularia oryzae
  inhibition of growth at 300 ppm: ≥ 70%
Alternaria solani
  inhibition of growth at 300 ppm: ≥ 70%

## CCN(C)C=Nc1cc(Cl)cc(Nc2cccc(C)c2)c1C [Compound 154, N′-(5-chloro-2-methyl-3-(m-tolylamino)phenyl)-N-ethyl-N-methylformimidamide]
Rhizoctonia solani
  inhibition of growth at 300 ppm: ≥ 70%
Pyricularia oryzae
  inhibition of growth at 300 ppm: ≥ 70%
Alternaria solani
  inhibition of growth at 300 ppm: ≥ 70%

## CCN(C)C=Nc1cc(Cl)cc(N(C)c2ccc(OC)c(F)c2)c1C [Compound 267, N′-(5-chloro-3-((3-fluoro-4-methoxyphenyl)(methyl)amino)-2-methylphenyl)-N-ethyl-N-methylformimidamide]
Pyricularia oryzae
  inhibition of growth at 300 ppm: ≥ 70%

## CCN(C)C=Nc1cc(F)cc(N(C)c2ccc3ncsc3c2)c1C [Compound 238, N′-(3-(benzo[d]thiazol-6-yl(methyl)amino)-5-fluoro-2-methylphenyl)-N-ethyl-N-methylformimidamide]
Pyricularia oryzae
  inhibition of growth at 300 ppm: ≥ 70%
Alternaria solani
  inhibition of growth at 300 ppm: ≥ 70%

## CCN(C)C=Nc1cc(Cl)cc(Cc2cccc(C#N)c2)c1C [Compound 250, N′-(5-chloro-3-(3-cyanobenzyl)-2-methylphenyl)-N-ethyl-N-methylformimidamide]
Pyricularia oryzae
  inhibition of growth at 300 ppm: ≥ 70%

## CCN(C)C=Nc1cc(C)cc(Nc2ccc3c(c2)OCCO3)c1Cl [Compound 169, N′-(2-chloro-3-((2,3-dihydrobenzo[b][1,4]dioxin-6-yl)amino)-5-methylphenyl)-N-ethyl-N-methylformimidamide]
Rhizoctonia solani
  inhibition of growth at 300 ppm: ≥ 70%
Pyricularia oryzae
  inhibition of growth at 300 ppm: ≥ 70%
Alternaria solani
  inhibition of growth at 300 ppm: ≥ 70%

## CCN(C)C=Nc1cc(OC)cc(Nc2ccc(OC)c(F)c2)c1C [Compound 269, N-ethyl-N′-(3-((3-fluoro-4-methoxyphenyl)amino)-5-methoxy-2-methylphenyl)-N-methylformimidamide]
Alternaria solani
  inhibition of growth at 300 ppm: ≥ 70%

## CCN(C)C=Nc1cc(C)cc(N(C)c2cccc(C(F)(F)F)n2)c1Cl [Compound 290, N′-(2-chloro-5-methyl-3-(methyl(6-(trifluoromethyl)pyridin-2-yl)amino)phenyl)-N-ethyl-N-methylformimidamide]
Pyricularia oryzae
  inhibition of growth at 300 ppm: ≥ 70%
Alternaria solani
  inhibition of growth at 300 ppm: ≥ 70%

## CCN(C)C=Nc1cc(C)cc(Cc2ccccc2C#N)c1Cl [Compound 47, N′-(2-chloro-3-(2-cyanobenzyl)-5-methylphenyl)-N-ethyl-N-methylformimidamide]
Pyricularia oryzae
  inhibition of growth at 300 ppm: ≥ 70%
Alternaria solani
  inhibition of growth at 300 ppm: ≥ 70%

## CCN(C)C=Nc1cc(F)cc(C(=O)COc2ccc(OC)cc2Cl)c1C [Compound 304, N′-(3-(2-(2-chloro-4-methoxyphenoxy)acetyl)-5-fluoro-2-methylphenyl)-N-ethyl-N-methylformimidamide]
Pyricularia oryzae
  inhibition of growth at 300 ppm: ≥ 70%
Alternaria solani
  inhibition of growth at 300 ppm: ≥ 70%

## CCN(C)C=Nc1cc(Cl)cc(Cc2ccc(SC)cc2)c1C [Compound 252, N′-(5-chloro-2-methyl-3-(4-(methylthio)benzyl)phenyl)-N-ethyl-N-methylformimidamide]
Pyricularia oryzae
  inhibition of growth at 300 ppm: ≥ 70%

## CCN(C)C=Nc1cc(C#N)cc(Cc2cccc(C#N)c2)c1C [Compound 309, N′-(5-cyano-3-(3-cyanobenzyl)-2-methylphenyl)-N-ethyl-N-methylformimidamide]
Pyricularia oryzae
  inhibition of growth at 300 ppm: ≥ 70%

## CCN(C)C=Nc1cc(Cl)cc(N(C)c2cccc(C(F)(F)F)n2)c1C [Compound 289, N′-(5-chloro-2-methyl-3-(methyl(6-(trifluoromethyl)pyridin-2-yl)amino)phenyl)-N-ethyl-N-methylformimidamide]
Pyricularia oryzae
  inhibition of growth at 300 ppm: ≥ 70%
Alternaria solani
  inhibition of growth at 300 ppm: ≥ 70%

## CCN(C)C=Nc1cc(F)cc(Cc2ccccc2C#N)c1C [Compound 168, N′-(3-(2-cyanobenzyl)-5-fluoro-2-methylphenyl)-N-ethyl-N-methylformimidamide]
Rhizoctonia solani
  inhibition of growth at 300 ppm: ≥ 70%
Pyricularia oryzae
  inhibition of growth at 300 ppm: ≥ 70%
Alternaria solani
  inhibition of growth at 300 ppm: ≥ 70%

## CCN(C)C=Nc1cc(C)cc(N(C)c2cc(F)cc(F)c2)c1Cl [Compound 74, N′-(2-chloro-3-((3,5-difluorophenyl)(methyl)amino)-5-methylphenyl)-N-ethyl-N-methylformimidamide]
Alternaria solani
  inhibition of growth at 300 ppm: ≥ 70%

## CCN(C)C=Nc1cc(OC)cc(Nc2ccccc2OC)c1C [Compound 268, N-ethyl-N′-(5-methoxy-3-((2-methoxyphenyl)amino)-2-methylphenyl)-N-methylformimidamide]
Alternaria solani
  inhibition of growth at 300 ppm: ≥ 70%

## CCN(C)C=Nc1cc(C#N)cc(Cc2cccc(Br)c2)c1C [Compound 313, N′-(3-(3-bromobenzyl)-5-cyano-2-methylphenyl)-N-ethyl-N-methylformimidamide]
Pyricularia oryzae
  inhibition of growth at 300 ppm: ≥ 70%

## CCN(C)C=Nc1cc(C)cc(Nc2cc(F)cc(Cl)c2)c1Cl [Compound 97, N′-(2-chloro-3-((3-chloro-5-fluorophenyl)amino)-5-methylphenyl)-N-ethyl-N-methylformimidamide]
Pyricularia oryzae
  inhibition of growth at 300 ppm: ≥ 70%

## CCN(C)C=Nc1cc(C)cc(N(C)c2ccccn2)c1Cl [Compound 107, N′-(2-chloro-5-methyl-3-(methyl(pyridin-2-yl)amino)phenyl)-N-ethyl-N-methylformimidamide]
Pyricularia oryzae
  inhibition of growth at 300 ppm: ≥ 70%

## CCN(C)C=Nc1cc(C)cc(N(C)c2cccc(OC)c2)c1Cl [Compound 49, N′-(2-chloro-3-((3-methoxyphenyl)(methyl)amino)-5-methylphenyl)-N-ethyl-N-methylformimidamide]
Pyricularia oryzae
  inhibition of growth at 300 ppm: ≥ 70%
Alternaria solani
  inhibition of growth at 300 ppm: ≥ 70%

## CCN(C)C=Nc1cc(F)cc(Cc2ccc(SC)cc2)c1C [Compound 241, N-ethyl-N′-(5-fluoro-2-methyl-3-(4-(methylthio)benzyl)phenyl)-N-methylformimidamide]
Rhizoctonia solani
  inhibition of growth at 300 ppm: ≥ 70%
Pyricularia oryzae
  inhibition of growth at 300 ppm: ≥ 70%
Alternaria solani
  inhibition of growth at 300 ppm: ≥ 70%

## CCN(C)C=Nc1cc(C)cc(Nc2cc(Cl)cc(C(F)(F)F)c2)c1Cl [Compound 137, N′-(2-chloro-3-((3-chloro-5-(trifluoromethyl)phenyl)amino)-5-methylphenyl)-N-ethyl-N-methylformimidamide]
Pyricularia oryzae
  inhibition of growth at 300 ppm: ≥ 70%
Alternaria solani
  inhibition of growth at 300 ppm: ≥ 70%

## CCN(C)C=Nc1cc(C)cc(Nc2ccc3ncsc3c2)c1Cl [Compound 228, N′-(3-(benzo[d]thiazol-6-ylamino)-2-chloro-5-methylphenyl)-N-ethyl-N-methylformimidamide]
Pyricularia oryzae
  inhibition of growth at 300 ppm: ≥ 70%
Alternaria solani
  inhibition of growth at 300 ppm: ≥ 70%

## CCN(C)C=Nc1cc(C)cc(Nc2cc(F)cc(F)c2)c1Cl [Compound 78, N′-(2-chloro-3-((3,5-difluorophenyl)amino)-5-methylphenyl)-N-ethyl-N-methylformimidamide]
Pyricularia oryzae
  inhibition of growth at 300 ppm: ≥ 70%
Alternaria solani
  inhibition of growth at 300 ppm: ≥ 70%

## CCN(C)C=Nc1cc(Cl)cc(Cc2cccc(OC(F)(F)F)c2)c1C [Compound 251, N′-(5-chloro-2-methyl-3-(3-(trifluoromethoxy)benzyl)phenyl)-N-ethyl-N-methylformimidamide]
Pyricularia oryzae
  inhibition of growth at 300 ppm: ≥ 70%
